Reference: patent publication US8815857B2 (Boehringer Ingelheim International GmbH, priority 2011, dated 2014)
Values after ≈ are worked out from the molar mass of the structure shown.

What was measured:
[1] = molecular target: T1, Recombinant human soluble guanylate cyclase (sGC), alpha 1 / beta 1 subunits, heme-free (Homo sapiens, UniProt Q02108+Q02153); test: Molecular assay: cGMP formation by heme-free recombinant sGC (CisBio cGMP detection kit); type: biochemical; details: 300 pM heme-free sGC, 37° C., 60 min, cGMP readout; read-out: EC50 nM, Activity of Compounds in Molecular Assay
T1 construct: histidine tag (C); made in house; host or cells: Sf9 insect cells (baculovirus coinfection)
T1 sequence (Q02108 1-690 partner): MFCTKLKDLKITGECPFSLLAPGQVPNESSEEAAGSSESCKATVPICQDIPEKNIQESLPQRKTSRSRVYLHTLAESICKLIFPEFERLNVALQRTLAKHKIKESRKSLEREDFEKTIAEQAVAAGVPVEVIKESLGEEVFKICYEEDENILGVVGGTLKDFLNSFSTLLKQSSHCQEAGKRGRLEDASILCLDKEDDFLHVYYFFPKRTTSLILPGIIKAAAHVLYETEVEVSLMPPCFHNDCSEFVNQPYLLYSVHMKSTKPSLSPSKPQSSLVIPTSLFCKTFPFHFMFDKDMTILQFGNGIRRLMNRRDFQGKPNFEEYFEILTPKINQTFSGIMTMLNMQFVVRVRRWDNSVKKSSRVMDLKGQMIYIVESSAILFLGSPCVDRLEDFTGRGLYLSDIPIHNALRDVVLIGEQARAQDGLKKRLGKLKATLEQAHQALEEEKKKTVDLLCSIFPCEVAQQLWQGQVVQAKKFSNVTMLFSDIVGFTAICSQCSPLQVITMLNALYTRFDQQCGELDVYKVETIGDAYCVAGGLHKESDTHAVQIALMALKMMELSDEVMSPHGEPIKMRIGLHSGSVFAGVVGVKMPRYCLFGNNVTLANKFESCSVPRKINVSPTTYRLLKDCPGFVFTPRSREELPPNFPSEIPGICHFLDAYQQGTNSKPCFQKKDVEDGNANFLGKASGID
T1 sequence (Q02153 1-619): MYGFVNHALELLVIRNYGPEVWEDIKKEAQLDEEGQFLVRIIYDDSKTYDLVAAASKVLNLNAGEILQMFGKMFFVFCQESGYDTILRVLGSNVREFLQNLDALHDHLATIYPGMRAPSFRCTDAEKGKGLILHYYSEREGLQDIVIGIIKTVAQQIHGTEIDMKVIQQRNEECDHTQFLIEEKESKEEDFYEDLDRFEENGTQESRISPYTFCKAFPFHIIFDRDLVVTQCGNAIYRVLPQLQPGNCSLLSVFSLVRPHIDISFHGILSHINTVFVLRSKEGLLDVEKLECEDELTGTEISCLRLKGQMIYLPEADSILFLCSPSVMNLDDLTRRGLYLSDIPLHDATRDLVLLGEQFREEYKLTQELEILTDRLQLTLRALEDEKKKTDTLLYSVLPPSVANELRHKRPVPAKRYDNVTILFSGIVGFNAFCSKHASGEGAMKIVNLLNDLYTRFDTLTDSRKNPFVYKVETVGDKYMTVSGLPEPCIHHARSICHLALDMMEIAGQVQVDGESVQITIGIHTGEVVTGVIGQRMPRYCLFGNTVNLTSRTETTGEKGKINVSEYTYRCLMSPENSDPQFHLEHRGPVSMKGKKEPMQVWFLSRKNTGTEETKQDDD
In short: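 cGMP generated over 60 min at 37° C (pH 6.8 MOPS buffer, 50 nM GTP, 1.25 mM IBMX, 1% DMSO) by 300 pM heme-free sGC, expressed in Sf9 and heme-stripped with 0.5% Tween 20. HTRF ratios converted to nM cGMP; EC50 fitted from log concentration.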

[2] = Assessment of solubility: HT solubility in pION buffer, UV spectrophotometry; details: pION system solution buffer, kinetic from dmso stock, 16-19 h incubation, 1.0% DMSO
[3] = molecular target: T2, human soluble guanylate cyclase alpha 1 and beta 1 subunits (sGC) stably expressed in Chinese hamster ovary cells (Homo sapiens, UniProt Q02108+Q02153); test: sGC cellular activator assay: cGMP in CHO cells expressing human sGC, preincubated with ODQ; type: cell-based; details: 40 microM ODQ preincubation, 30 min at room temperature, presence or absence of 50% human serum not given, read-out: EC50 nM, Activity of Compounds in Cellular Assay
T2 construct: expressed in transfected cells; host or cells: Chinese hamster ovary cells, stably transfected
T2 sequence (Q02108 1-690 partner): T1 sequence (Q02108 1-690 partner)
T2 sequence (Q02153 1-619): T1 sequence (Q02153 1-619)
Procedure: The sGC cellular activator assay is performed in the presence and absence of 50% human serum (HS) using Chinese hamster ovary cells that have been stably transfected to express the human soluble guanylate cyclase alpha 1 and beta 1 subunits (sGC). Cells are preincubated with 40 microM 1H-[1,2,4]oxadiazolo[4,3-a]quinoxalin-1-one (ODQ), an sGC inhibitor, for one hour in buffer containing 0.1% bovine serum albumin and 3-isobutyl-1-methylxanthine (IBMX). Concentration response curves are prepared for test compounds in DMSO. An intermediate dilution of the compounds is performed in either buffer containing IBMX or type AB HS containing IBMX. Diluted compounds are added to cells and they are incubated at room temperature for thirty minutes. cGMP is measured using a CisBio homogeneous time resolved fluorescence kit and the EC50 is calculated for each compound.

[4] = pH 4.5, pH 4.5, aqueous buffer, Solubility (pH 4.5), pH 4.5 buffer
[5] = pH 7.4, pH 7.4, aqueous buffer, Solubility (pH 7.4), pH 7.4 buffer

SMILES | EC50 [1] [nM] | solubility [2, 4] [µg/mL] | solubility [2, 5] [µg/mL] | EC50 [3] [nM]
Cc1cc(CN2CCOCC2)ccc1COc1ccc(C#N)cc1-c1csc(N2CCC(C(=O)O)CC2)n1 [Compound 168] | 730 | 36 (≈ 67.6 µM) | > 57 | 
COCCN(C)Cc1ccc(COc2ccc(C#N)cc2-c2csc(N3CCC(C(=O)O)CC3)n2)c(C)c1 [Compound 171] | 2400 | 34 (≈ 63.6 µM) | 36 (≈ 67.3 µM) | 
COCCNCc1ccc(COc2ccc(C#N)cc2-c2csc(N3CCC(C(=O)O)CC3)n2)c(C)c1 [Compound 172] | 5600 | 41 (≈ 78.7 µM) | > 63 | 
Cc1ccc(OCc2ccc(CN3CCOCC3)cc2C)c(-c2csc(N3CC[C@@H](C(=O)O)[C@@H](C)C3)n2)c1 [Compound 173] | 140 | > 64 | > 64 | 
Cc1ccc(OCc2ccc(CN3CCOCC3)cc2C)c(-c2csc(N3C4CCC3CC(C(=O)O)C4)n2)c1 (stereo not shown) [Compound 174] | 320 | > 66 | > 66 | 
Cc1ccc(OCc2ccc(CN3CCOCC3)cc2C)c(-c2csc(N(C)CCCC(=O)O)n2)c1 [Compound 179] | 990 | > 55 | > 55 | 
Cc1ccc(OCc2ccc(CN3CCOCC3)cc2C)c(-c2csc(N[C@H]3CC[C@@H](C(=O)O)C3)n2)c1 [Compound 181] | 3100 | > 52 | > 52 | 
Cc1ccc(OCc2ccc(CN3CCN(S(C)(=O)=O)CC3)cc2C)c(-c2csc(N3CCC(C(=O)O)CC3)n2)c1 [Compound 196] | 110 | 16 (≈ 26.7 µM) | 37 (≈ 61.8 µM) | 
Cc1ccc(OCc2ccc(CN3CCN(C(=O)C4CCOC4)CC3)cc2C)c(-c2csc(N3CCC(C(=O)O)CC3)n2)c1 (stereo not shown) [Compound 197] | 230 | 51 (≈ 82.4 µM) | > 71 | 
Cc1ccc(OCc2ccc(CN3CCN(C(=O)N(C)C)CC3)cc2C)c(-c2csc(N3CCC(C(=O)O)CC3)n2)c1 [Compound 199] | 140 | > 59 | > 59 | 
Cc1ccc(OCc2ccc(CN3CCN(S(=O)(=O)N(C)C)CC3)cc2C)c(-c2csc(N3CCC(C(=O)O)CC3)n2)c1 [Compound 200] | 80 | 8.5 (≈ 13.5 µM) | 30 (≈ 47.8 µM) | 
Cc1ccc(OCc2ccc(CN3CCOCC3)cc2C)c(-c2csc(N[C@H]3CC[C@@H](C(=O)O)CC3)n2)c1 [Compound 201] | 960 | 36 (≈ 67.2 µM) | > 53 | 
Cc1ccc(OCc2ccc(CN3CCOCC3)cc2C)c(-c2csc(N3CC(C(=O)O)C3)n2)c1 [Compound 215] | 1000 | > 60 | > 60 | 
Cc1ccc(OCc2ccc(CN3CCOCC3)cc2C)c(-c2csc(N3CCC4CC4(C(=O)O)CC3)n2)c1 (stereo not shown) [Compound 231] |  |  |  | 150
Cc1ccc(OCc2ccc(C(=O)N3CCCCC3)cc2C)c(-c2csc(N3CC[C@@H](C(=O)O)[C@H]3C)n2)c1 [Compound 240] |  |  |  | 36
Cc1ccc(OCc2ccc(C(=O)N3CCCCC3)cc2OC(F)(F)F)c(-c2csc(N3C[C@H]4CC[C@@H](C3)[C@H]4C(=O)O)n2)c1 [Compound 279] |  |  |  | 11
Cc1ccc(OCc2ccc(CN3CCN(C)C(=O)C3)cc2C)c(-c2csc(N3CCC(C(=O)O)CC3)n2)c1 [Compound 292] |  |  |  | 10
